Assay results reported in paper PMC11747885, “Potent inhibitors of the human RNA ligase Rlig1 highlights its role in RNA integrity maintenance under oxidative cellular stress” (Chemical Science, 2025).
pEC50, pIC50: −log10 of the molar value. Values joined by “and” are separate entries in the source; they are usually repeats but may differ in a detail not shown here. Equal values may be shown once. “Also recorded” adds a separate entry of the source. Read-outs that look alike come from different tables or passages of the source. No end group written: not given here.

Experiments:
Rlig1-AMP [1] = target: T1, Rlig1-AMP (Homo sapiens, UniProt Q8N999); assay: Radioactive RNA ligation assay (hit validation, 10 µM test and IC50 determination); assay type: biochemical; settings: for inhibition in radioactive ligation assay (hit validation): 10 µM compound, 37 °C, 20 min; for inhibition of Rlig1-AMP ligation (urea-PAGE): 10 μM compound, 500 nM Rlig1-AMP, 20 min 37 °C
T1 construct: made in house; host or cells: E. coli BL21 (DE3), pET15b-Rlig1
T1 sequence (Q8N999 whole entry): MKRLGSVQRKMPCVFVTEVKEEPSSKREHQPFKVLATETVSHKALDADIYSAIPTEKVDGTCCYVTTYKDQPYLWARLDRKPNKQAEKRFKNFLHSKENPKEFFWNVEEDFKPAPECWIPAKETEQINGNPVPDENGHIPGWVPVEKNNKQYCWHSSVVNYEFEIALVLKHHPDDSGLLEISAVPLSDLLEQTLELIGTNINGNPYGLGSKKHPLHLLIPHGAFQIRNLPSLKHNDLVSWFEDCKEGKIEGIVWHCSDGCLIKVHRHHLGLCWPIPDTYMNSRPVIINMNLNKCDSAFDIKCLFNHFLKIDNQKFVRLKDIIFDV

HEK293 cells = assay: Cell viability assay of HEK293 cells treated with inhibitors (CellTiter-Glo)
in vitro = settings: human
Rlig1-AMP [2] = target: T1, Rlig1-AMP; assay: FRET-based high-throughput screening of inhibitors for Rlig1-AMP; assay type: biochemical
[3] = log(inhibitor) vs. response, variable slope (four parameters)
[4] = HTS hits, difference of raw data w/o and w enzyme
[5] = HTS hits, normalised value of 1-D Distance
[6] = HTS hits, difference of raw data without and with enzyme

With `CN(C)C/C=C/C(=O)Nc1ccc(C(=O)Nc2cccc(Nc3ncc(Cl)c(-c4c[nH]c5ccccc45)n3)c2)cc1.Cl` [Compound 2, THZ1 (Hydrochloride), reference compound] the “inhibition in radioactive ligation assay (hit validation)” value (“inhibition … (hit validation)” for short) (Rlig1-AMP [1]) was “above 70%”.

For `Cc1cc(-c2cc(O)ccc2Cl)cc2nnc(Nc3ccc(OCCN4CCCC4)cc3)nc12.Cl` [Compound 6, reference compound], the “inhibition … (hit validation)” value (Rlig1-AMP [1]) was “above 70%”.

For `Cn1nc(-c2ccc(C(F)(F)F)cc2)nc2c(=O)n(C)c(=O)nc1-2` [Compound 11, reference compound], the “IC50 (in words)” value (Rlig1-AMP [1]; concentration-dependent radioactive ligation assay) was “nanomolar range”.

With `CN(C)Cc1ccc(-c2cnn3c(-c4cccc(NC(=O)c5cccc(C(F)(F)F)c5)c4)ccnc23)cc1` [Compound 17, reference compound] the “inhibition … (hit validation)” value (Rlig1-AMP [1]) was “above 70%”.

In the case of `Cc1cc(Nc2ccc(NC(=O)c3ccc(Nc4cccc5ccccc45)cc3)cc2)nc(N)n1` [Compound 44], the “inhibition of Rlig1-AMP ligation (urea-PAGE)” value (Rlig1-AMP [1]) was “inactive”.

In the case of `Cc1cc(Nc2ccc(NC(=O)c3ccc(Nc4ccnc5[nH]ccc45)cc3)cc2)nc(N)n1` [Compound 46], the “cytotoxicity (in words)” value (HEK293 cells; HEK293, 24 h, up to 30 μM) was “comparatively high cytotoxicity”, the “IC50 (Figure 3D: EC50 values for plot; log(inhibitor) vs. response -- Variable slope (four parameters))” value (HEK293 cells; HEK293 cell viability, fit per plate (3 plates, 4 technical replicates each), highest tested concentration 30 µM) was 8.158 µM and 9.993 µM and 11.5211 µM and the “LogIC50 (log(inhibitor) vs. response -- Variable slope (four parameters))” value (HEK293 cells; HEK293 cell viability, fit per plate (3 plates, 4 technical replicates each), log of [µM]) was 0.9116 and 0.9997 and 1.0615. For the same molecule, the pEC50 (HEK293 cells; Homo sapiens, HEK293, 24 h) was 5.03, the “inhibition of Rlig1-AMP ligation (urea-PAGE)” value (Rlig1-AMP [1]) was “Ligation was inhibited; also recorded: inhibited ligase activity” and the “HillSlope (best-fit value)” value (Rlig1-AMP [1]; four-parameter fit) was 6.864. The “Span (best-fit value)” value (Rlig1-AMP [1]; four-parameter fit) was 90.69, the pIC50 (Rlig1-AMP [1]; four-parameter fit, n = 3, read-out: IC50 (best-fit value)) was 5.15 and the inhibition at 30 µM (Rlig1-AMP [1]; log Compound [µM] 1.47712, replicates I-III, read-out: percentage inhibition (dose response curve for IC50)) was 100%. For the same molecule, the “LogIC50 (best-fit value)” value (Rlig1-AMP [1]; log of µM, four-parameter fit) was 0.8514, the “Bottom (best-fit value)” value (Rlig1-AMP [1]; [3]) was 7.468 and the “Top (best-fit value)” value (Rlig1-AMP [1]; [3]) was 98.16. The viability at 24 h, 0.234375 µM (in vitro) was 104%, the viability at 24 h, 0.46875 µM (in vitro) was 98.9% and the viability at 24 h, 0.9375 µM (in vitro) was 97.1%. The viability at 24 h, 1.875 µM (in vitro) was 96.8%, the viability at 24 h, 3.75 µM (in vitro) was 94.8% and the viability at 24 h, 7.5 µM (in vitro) was 64.8%. For the same molecule, the viability at 24 h, 15 µM (in vitro) was 23.1% and the viability at 24 h, 30 µM (in vitro) was 7.96%.

In the case of `CC(C)c1cccc(C(C)C)c1O` [Propofol], the “1-D Distance” value (Rlig1-AMP [2]) was 1959, the “Raw data [w Enyzm]” value (Rlig1-AMP [2]) was 8754 and the “Raw data [w/o Enzym]” value (Rlig1-AMP [2]) was 10713.

With `CCC(O)C(=O)[O-].[Na+]` (stereo not shown) [Sodium 2-hydroxybutanoate] the “1-D Distance” value (Rlig1-AMP [2]; [4]) was 1888, the “1-D Distance.npi” value (Rlig1-AMP [2]; [5]) was 73.0807 and the “Raw data [w Enyzm]” value (Rlig1-AMP [2]; HTS hits, with enzyme) was 8789. For the same molecule, the “Raw data [w/o Enzym]” value (Rlig1-AMP [2]; HTS hits, without enzyme) was 10677.

With `O.O=C1C=CC[C@@H]2[C@H]3CCCN4CCC[C@@H](CN12)[C@@H]34` [Sophocarpine (monohydrate)] the “1-D Distance” value (Rlig1-AMP [2]; [4]) was 1834, the “1-D Distance.npi” value (Rlig1-AMP [2]; [5]) was 71.833 and the “Raw data [w Enyzm]” value (Rlig1-AMP [2]; HTS hits, with enzyme) was 8885. The “Raw data [w/o Enzym]” value (Rlig1-AMP [2]; HTS hits, without enzyme) was 10719.

In the case of `COc1cc(S(=O)(=O)[O-])ccc1O.[K+]` [Sulfogaiacol], the “1-D Distance.npi” value (Rlig1-AMP [2]; sheet HTS hits, MedChemExpress library) was 81.4409, the “1-D Distance” value (Rlig1-AMP [2]; sheet HTS hits, difference of raw data w/o and w enzyme) was 1427 and the “Raw data [w Enyzm]” value (Rlig1-AMP [2]; sheet HTS hits, with enzyme) was 8908. For the same molecule, the “Raw data [w/o Enzym]” value (Rlig1-AMP [2]; sheet HTS hits, without enzyme) was 10335.

For `Cn1ncnc2c(=O)n(C)c(=O)nc1-2` [Toxoflavin], the “1-D Distance” value (Rlig1-AMP [2]; [4]) was 1019, the “1-D Distance.npi” value (Rlig1-AMP [2]; HTS hits, normalized value (npi)) was 89.8188 and the “Raw data [w Enyzm]” value (Rlig1-AMP [2]; HTS hits, with enzyme) was 16186. The “Raw data [w/o Enzym]” value (Rlig1-AMP [2]; HTS hits, without enzyme) was 17205.

In the case of `C/C=C/c1cc(OC)c(OC)cc1OC` [alpha-Asarone], the “1-D Distance” value (Rlig1-AMP [2]; [4]) was 1762, the “1-D Distance.npi” value (Rlig1-AMP [2]; [5]) was 73.1231 and the “Raw data [w Enyzm]” value (Rlig1-AMP [2]; HTS hits, with enzyme) was 8891. For the same molecule, the “Raw data [w/o Enzym]” value (Rlig1-AMP [2]; HTS hits, without enzyme) was 10653.

For LL-37, human (TFA), the “1-D Distance.npi” value (Rlig1-AMP [2]; HTS hits, MedChemExpress library) was 104.017, the “1-D Distance” value (Rlig1-AMP [2]; [6]) was 99 and the “Raw data [w Enyzm]” value (Rlig1-AMP [2]; HTS hits, with enzyme) was 6495. The “Raw data [w/o Enzym]” value (Rlig1-AMP [2]; HTS hits, without enzyme) was 6396.

With “Lactoferrin (17-41) (acetate) (TKCFQWQRNMRKVRGPPVSCIKRDS; ends and bridges not checked; also: acetate salt; UniProt P02788 36-60, looked up, fragment)” the “1-D Distance” value (Rlig1-AMP [2]; [4]) was 1421, the “1-D Distance.npi” value (Rlig1-AMP [2]; [5]) was 74.4696 and the “Raw data [w Enyzm]” value (Rlig1-AMP [2]; HTS hits, with enzyme) was 8755. For the same molecule, the “Raw data [w/o Enzym]” value (Rlig1-AMP [2]; HTS hits, without enzyme) was 10176.

With Plicamycin the “1-D Distance” value (Rlig1-AMP [2]; [6]) was 1957, the “Raw data [w Enyzm]” value (Rlig1-AMP [2]; HTS hits, with enzyme) was 9254 and the “Raw data [w/o Enzym]” value (Rlig1-AMP [2]; HTS hits, without enzyme) was 11211.

For Verteporfin, the “1-D Distance” value (Rlig1-AMP [2]; [4]) was 1236, the “1-D Distance.npi” value (Rlig1-AMP [2]; [5]) was 82.5479 and the “Raw data [w Enyzm]” value (Rlig1-AMP [2]; HTS hits, with enzyme) was 1492. For the same molecule, the “Raw data [w/o Enzym]” value (Rlig1-AMP [2]; HTS hits, without enzyme) was 2728.

In the case of Vitamin B12, the “1-D Distance” value (Rlig1-AMP [2]; [4]) was 580, the “1-D Distance.npi” value (Rlig1-AMP [2]; [5]) was 94.3021 and the “Raw data [w Enyzm]” value (Rlig1-AMP [2]; HTS hits, with enzyme) was 5329. For the same molecule, the “Raw data [w/o Enzym]” value (Rlig1-AMP [2]; HTS hits, without enzyme) was 5909.
